Source: ChEMBL document CHEMBL2434945, “Anti-inflammatory constituents from the fruits of Vitex rotundifolia” (Bioorg Med Chem Lett, 2013)
pIC50: −log10 of the molar value.

Columns and labels:
[1] = Cytotoxicity against mouse RAW264.7 cells assessed as cell viability by colorimetric method relative to control; format: cell-based; design: concentration or dose not given beside the values; conditions: read-out: Activity
[2] = test system: RAW264.7; assay: Antiinflammatory activity against mouse RAW264.7 cells assessed as inhibition of LPS-induced NO production after 24 hrs by Griess method; format: functional, cell-based; conditions: RAW264.7, 24 h

| Compound | pIC50 [2] | viability [1] [%] |
| --- | --- | --- |
| C[C@@H]1CC[C@H]2C(C)(C)CCC[C@]2(C)[C@@]12CC/C(=C\C=O)O2 | 4.38 | > 90 |
| CC(C)(O)c1ccc2c(c1)CC[C@H]1C(C)(C)[C@@H](O)CC[C@]21C | < 4.30 | > 90 |
| COc1cc([C@H]2Oc3c(OC)cc(CCCO)cc3[C@@H]2CO)ccc1O [DIHYDRODEHYDRODICONIFERY ALCOHOL] | 4.41 | > 90 |
| COc1cc(C[C@H]2CO[C@H](c3ccc(O)c(OC)c3)[C@H]2CO)ccc1O [LARICIRESINOL] | < 4.30 | > 90 |
| N=C(N)NN [PIMAGEDINE] |  | > 90 |
| CC(=O)O[C@H]1CC[C@@]2(C)[C@@H](CC[C@@H](C)[C@]23CCC(=O)O3)C1(C)C [VITEDOIN B] | < 4.30 | > 90 |
| CC(=O)O[C@@H]1C[C@@H](C)[C@](O)(CCC2=CC(=O)OC2)[C@@]2(C)CCCC(C)(C)[C@H]12 [VITEXILACTONE] | 4.37 | > 90 |

The remaining compounds from weak to strong by pIC50 [2], led by results:

| pIC50 [2] | Compound | viability [1] [%] |
| --- | --- | --- |
| 4.61 | C=CC(C)(O)CC[C@@]1(C)C2=C([C@H](OC(C)=O)[C@H](OC(C)=O)[C@H]1C)C(C)(C)CCC2 (some centres undefined) [VITETRIFOLIN D] | > 90 |
| 4.67 | COc1ccc(-c2oc3cc(OC)c(OC)c(O)c3c(=O)c2OC)cc1O [CASTICIN] | > 90 |
| 4.95 | CC(=O)O[C@@H]1C[C@@H](C)[C@](O)(CCC2=CC(=O)OC2O)[C@@]2(C)CCCC(C)(C)[C@H]12 (some centres undefined) [VITEAGNUSIN I] | > 90 |
